Assay results taken from patent publication US8603513B2 (priority 2007, dated 2013).
Where “and” joins values, the source holds several entries; their conditions need not be identical. Identical values can stand only once. Like-named read-outs stand apart in the source and are kept apart here.

Legend:
[1] = system: TSST-1 toxin produced by S. aureus; assay type: cell-based, Staphylococcus aureus MN 8
[2] = system: Staphylococcus aureus MN 8; assay type: cell-based
[3] = system: Lactobacillus crispatus (LMG 12005); assay type: cell-based
[4] = system: Lactobacillus gasseri (ATCC 9857); assay type: cell-based
[5] = system: Lactobacillus iners (LMG 18916); assay type: cell-based

| Compound | % TSST-1 Change (ug/ml) vs. control [1] | Change in S. Aureus CFU/ml vs. control [2] | % TSST-1 Change (ug/ml/mM) vs. control [1] | further results |
| --- | --- | --- | --- | --- |
| [Cl-].[Cl-].[Mg+2] [Magnesium chloride] | 47% | ≦1 log | – | – |
| [Ca+2].[Cl-].[Cl-] [Calcium chloride] | 82% | ≦1 log | 2.5% and 1.1% | % TSST-1 Change (ug/ml) vs. control ([1]; 18-20 h, 37° C.): 37% |
| CCCCCCCCCCCCCCCCCC(=O)O [Calcium stearate, calcium stearate] | 65% and 62% | – | 6.6% and 0.6% | – |
| [Cl][Fe][Cl] [Ferrous chloride] | – | >2 log | – | – |
| [Cl-].[Cl-].[Zn+2] [Zinc chloride] | – | >2 log | – | – |
| CC(O)C(=O)[O-].CC(O)C(=O)[O-].[Ca+2] (stereo not shown) [Calcium lactate] | 49% and 89% and 90% | <1 log | 5.6% and 1.7% | Change in L. cripatus vs. control [3]: <1 log; Change in L. gasseri vs. control [4]: <1 log; Change in L. iners vs. control [5]: <1 log |
| [Cl][Cu][Cl] [Copper chloride] | – | >3 log | – | – |
| O=C1O[C@H]([C@@H](O)CO)C(O)=C1O [Calcium ascorbate, calcium ascorbate] | – | >2 log | – | growth of S. aureus relative to controls [2]: virtually eliminate the growth |
